Test results taken from patent US8497240B2 (priority 2006, dated 2013).
pEC50, pIC50: −log10 of the molar value. Where two headings read alike, the source gives them in different places. Ends that are not written are not given here.

Columns and labels:
[1] = normal men, infusion; cited from earlier work
[2] = Body composition in DIO mice; format: in vivo, C57BL/6J mice
Source text: During the study, the mice can continue to eat their high-fat diet. Water can be provided ad libitum throughout the study.
DIO mice can be implanted with subcutaneous (SC) intrascapular osmotic pumps to deliver either vehicle (50% dimethylsulfoxide (DMSO) in water) or a compound of the invention. […] Body weights and food intake can be measured over regular intervals throughout the study periods. Respiratory quotient (RQ, defined as CO2 production÷O2 consumption) and metabolic rate can be determined using whole-animal indirect calorimetry (Oxymax, Columbus Instruments, Columbus, Ohio). The mice can be euthanized by isoflurane overdose, and an index of adiposity (bilateral epididymal fat pad weight) measured. Moreover, prior to determination of epididymal weight, body composition (lean mass, fat mass) for each mouse can be analyzed using a Dual Energy X-ray Absorptiometry (DEXA) instrument per manufacturer's instructions (Lunar Piximus, GE Imaging System).

[3] = format: in vivo, NIH/Swiss mice
Procedure: (§1) In FIG. 3A, bars represent mean±sd, n=6-10. […] Gavage (1.5 g/kg) was given at t=0, Sample was taken at t=30 min. […] In FIG. 3B, points represent mean±sem, n=8-15.
Peptide was injected IP at t=−5 minutes into 4-hour fasted NIH/Swiss female mice. […] In FIG. 17 points represent mean+/−sem. […] Samples were taken at t=60, t=120 and t=180.

[4] = format: in vivo, NIH/Swiss mice; remark: listed apart in the source
Procedure: as §1
Points represent mean±sem.

[5] = format: in vivo, db/db mice; conditions: for glucose lowering in a diabetic mouse model (FIG. 4): db/db mice, IP
Procedure: Peptide was injected IP at t=0 immediately following baseline sample into 2-hour fasted db/db mice.

[6] = Intravenous glucose tolerance test (IVGTT), i.v. infusion; format: in vivo, rat; conditions: for insulin levels prior to the glucose challenge / insulinotropic response to an intravenous glucose challenge (IVGTT assay): 100 pmol/kg/min infusion, rats
Procedure: In the typical IVGTT assays the test sample was administered by IV infusion. The IV infusion of sample was initiated at t=−30 min and continued through t=90. IV glucose was given at t=0. To determine a duration of action using the IVGTT assay, the sample was injected SC as a single injection at one time point indicated (e.g., t=−240, −120, −60 or −30) prior to administration of glucose. IV glucose was given at t=0.
As described, fed, isoflurane anesthetized HSD male rats were intubated and cannulated via femoral artery and vein and allowed to stabilize for 1 hour. […] At t=0, an i.v. bolus of 5.7 mmol/kg D-glucose was administered over 2 minutes. Samples for glucose measurement and insulin concentrations were taken at various time points before and after (0 to 90 minutes) glucose infusion.

[7] = IVGTT duration of action assay (single SC injection before glucose); format: in vivo, rat
Procedure: To determine a duration of action using the IVGTT assay, the sample was injected SC as a single injection at one time point indicated (e.g., t=−240, −120, −60 or −30) prior to administration of glucose. IV glucose was given at t=0.

[8] = molecular target: cardiomyocyte Gs-coupled receptors; assay: cAMP production in neonatal cardiomyocytes (HTRF, Gs-coupled receptor activation); format: cell-based, rat; conditions: for pEC50: neonatal rat cardiomyocytes
Procedure: Activation of cardiomyocyte Gs- and Gi-coupled receptors was determined as a measure of cAMP production.
Neonatal cardiomyocytes were isolated using a commercially available system. […] Sprague Dawley neonatal rats (1-2 days old) were decapitated and the beating heart dissected out into digestion buffer (Cellutron D1 buffer) to dissociate cells. […] The resuspended cells incubated in buffer (Cellutron D3 buffer) for sufficient time to allow optimal dispersion and minimize the need for pipetting to break up clumps. Cells released from the first 2 digestions were discarded since a significant portion of these is red blood cells. Resuspended cells were filtered and allowed to pre-plate for 1 hour on plastic in an incubator in NS media (Cellutron, N.J.) in order to remove fibroblasts. After 1 hour of pre-plating, floating cells are removed and the flask rinsed with NS media. The floating cells and the cells in the rinse media were combined and counted. Residual red blood cells, which are smaller that the cardiac myocytes, were not counted.
At Day 1, the NS media was replaced with fresh NS media.
Dose response was determined.
For Gs assays the positive control was 10 uM forskolin and negative control was buffer. For Gi assays the positive control was buffer and the negative control was 10 uM forskolin.

[9] = for Mouse Food Intake, % basal: dose per compound (4.8 to 25 nmol/Kg)
[10] = Telemetry of circulatory effects in conscious rats; conditions: 80 nmol/kg intravenous
[11] = 30, 60 90 μg, men with IDDM; cited from earlier work
[12] = conscious rats, cited from earlier work; for EC(50) nmol/kg for inhibition of gastric emptying: subcutaneous 5 min before gavage
human GIP receptor = assay: biochemical; format: binding; conditions: read-out: GIP RBA
pancreatic CCK receptor = conditions: cited from earlier work
[13] = Body weight gain in diet-induced-obesity (DIO) mice; format: in vivo, C57BL/6 mice
[14] = Gastric emptying (FIG. 23A); conditions: in vivo
[15] = Intracellular calcium levels (FIG. 23B)
[16] = Glucose in rats (summary table); format: in vivo, rat
[17] = 30 minutes, read-out: EC50 of cAMP production (this experiment, FIGS. 18A/18B)
[18] = read-out: EC50 of cardiomyocyte Gs-coupled receptor activation (three independent experiments)

## BNP: brain natriuretic peptide
[1]
  increase in sodium excretion: 2 fold
  reduction in plasma renin, angiotensin II and aldosterone secretion: 50%

## Y(D-Ala)EGTFISDYSIAMDKIHQQDFVNWLLAQKPSSGAPPPS-NH2 [Compound 0601GIP3794]
[2]; mouse, in vivo
  body composition: slight decrease in percentage body fat with an increase in body protein without a concomitant reduction in body weight
[3]; 10 nmol/kg
  OGTT/GL (%): −17% 10 nmol/kg
[3]; 350 nmol/kg
  OGTT/GL (%): −21% 350 nmol/kg,
[3]; mouse, in vivo
  OGTT (compared to 0601GIP3794): =794
  OGTT ED50: ED50 ~2 nmol/kg,
  OGTT response: −21%
[4]; 80 nmol/kg, AUC180
  Basal Glucose Lowering at 80 nmol/Kg: −9%, AUC180
[4]; 80 nmol/kg, AUC240
  Basal Glucose Lowering at Peptide Conc. of 80 nmol/kg: −7 to −20%,
[4]; 2-hour fasted NIH/Swiss mice, IP
  glucose lowering profile over 240 min (FIGS. 8-10): gradually increasing activity that peaks at t=120 min, and is more sustained than native GIP or its D-Ala2 version
[4]; NIH/Swiss mice, IP
  glucose lowering in normal mice (FIGS. 3A and 3B): significantly more efficacious than full length GIP
[4]; mouse, in vivo
  GL (glucose lowering, compared to 0601GIP3794): =794
  basal glucose lowering (% maximal decrease): −20%
[5]; 80 nmol/kg, t = 120
  Basal Glucose Lowering in db/db: −33%, 80 nmol/kg,
[5]
  glucose lowering in a diabetic mouse model (FIG. 4): pronounced and long-acting effect in lowering glucose
[6]
  insulin levels prior to the glucose challenge: significant rise in insulin levels
  insulinotropic response to an intravenous glucose challenge (IVGTT assay): significant enhancement of the insulinotropic response
[6]; rat, in vivo
  IVGTT > = < Compared to 0601GIP3794: =
[6]; rat, in vivo, iv
  Standard IVGTT assay IV infusion (insulin AUC 0-30 min): 249
[7]; SC inj T = −30 min
  Duration of action in assay (insulin AUC 0-30 min): 198
[7]; SC inj T = −60 min
  Duration of action in assay (insulin AUC 0-30 min): 159
[7]; SC inj T = −120 min
  Duration of action in assay (insulin AUC 0-30 min): 204
[7]; SC inj T = −240 min
  Duration of action in assay (insulin AUC 0-30 min): 79
[7]; time not stated
  DOA (duration of action, compared to 0601GIP3794): =794
[8]; [17]
  pEC50: 7.93
[8]; [18]
  pEC50: 7.53
[9]; mouse, in vivo, ip
  food intake: did not acutely inhibit food intake
[10]
  dP/dt: increased dP/dt similarly
  effect on heart rate: transient relative to GIP
  effect on mean arterial pressure: decreased mean arterial pressure
  systolic and diastolic pressures: sustained lowering of systolic and diastolic pressures

## CC[C@H](C)[C@H](NC(=O)[C@@H]1CCCN1C(=O)CNC(=O)[C@H](Cc1ccccc1)NC(=O)[C@H](CC(N)=O)NC(=O)[C@H](CC(N)=O)NC(=O)[C@H](CO)NC(=O)[C@H](CO)NC(=O)[C@H](Cc1c[nH]cn1)NC(=O)[C@@H](NC(=O)[C@H](CC(C)C)NC(=O)[C@H](Cc1ccccc1)NC(=O)[C@H](CC(N)=O)NC(=O)[C@H](C)NC(=O)[C@H](CC(C)C)NC(=O)[C@H](CCCNC(=N)N)NC(=O)[C@H](CCC(N)=O)NC(=O)[C@@H](NC(=O)[C@H](C)NC(=O)[C@@H]1CSSC[C@H](NC(=O)[C@@H](N)CCCCN)C(=O)N[C@@H](CC(N)=O)C(=O)N[C@@H]([C@@H](C)O)C(=O)N[C@@H](C)C(=O)N[C@@H]([C@@H](C)O)C(=O)N1)[C@@H](C)O)C(C)C)C(=O)N[C@@H](CC(C)C)C(=O)N1CCC[C@H]1C(=O)N1CCC[C@H]1C(=O)N[C@H](C(=O)N[C@@H](CC(N)=O)C(=O)N[C@H](C(=O)NCC(=O)N[C@@H](CO)C(=O)N[C@@H](CC(N)=O)C(=O)N[C@H](C(=O)N[C@@H](Cc1ccc(O)cc1)C(N)=O)[C@@H](C)O)C(C)C)[C@@H](C)O [pramlintide, ^25,28,29Pro-h-amylin]
[11]
  half-emptying time of the stomach: approximately doubled the half-emptying time of the stomach

## VIP: vasoactive intestinal peptide (HSDAVFTDNYTRLRKQMAVKKYLNSILN; ends and bridges not checked; UniProt P01282 125-152, looked up)
[12]
  inhibition of gastric emptying at doses of 100 μg: either weakly active or inactive

## HAEGTFTSDVSSYLEGQAAKEFIAWLVKGR [GLP-1]
[8]
  cAMP activity in cardiomyocytes: very low to no significant activity

## CC[C@H](C)[C@H](NC(=O)[C@H](CO)NC(=O)[C@H](Cc1ccc(O)cc1)NC(=O)[C@H](CC(=O)O)NC(=O)[C@H](CO)NC(=O)[C@@H](NC(=O)[C@H](Cc1ccccc1)NC(=O)[C@@H](NC(=O)CNC(=O)[C@H](CCC(=O)O)NC(=O)[C@@H](C)NC(=O)[C@@H](N)Cc1ccc(O)cc1)[C@@H](C)O)[C@@H](C)CC)C(=O)N[C@@H](C)C(=O)N[C@@H](CCSC)C(=O)N[C@@H](CC(=O)O)C(=O)N[C@@H](CCCCN)C(=O)N[C@H](C(=O)N[C@@H](Cc1c[nH]cn1)C(=O)N[C@@H](CCC(N)=O)C(=O)N[C@@H](CCC(N)=O)C(=O)N[C@@H](CC(=O)O)C(=O)N[C@@H](Cc1ccccc1)C(=O)N[C@H](C(=O)N[C@@H](CC(N)=O)C(=O)N[C@@H](Cc1c[nH]c2ccccc12)C(=O)N[C@@H](CC(C)C)C(=O)N[C@@H](CC(C)C)C(=O)N[C@@H](C)C(=O)N[C@@H](CCC(N)=O)C(=O)N[C@@H](CCCCN)C(=O)N[C@@H](CO)C(=O)NCC(=O)N[C@@H](C)C(=O)N1CCC[C@H]1C(=O)N1CCC[C@H]1C(=O)N1CCC[C@H]1C(=O)N[C@@H](CO)C(N)=O)C(C)C)[C@@H](C)CC [0601GIP4192]
Human GIP receptor
  pIC50: 8.15
[3]; 350 nmol/kg
  OGTT/GL (%): −16%

## DY(SO3)MGWMDF [CCK-8]
[12]
  EC(50) nmol/kg for inhibition of gastric emptying: 12.8 nmol/kg
Pancreatic CCK receptor
  potency of binding displacement relative to unsulfated CCK-8 or CCK-4: 1000-5000

## neuropeptide Y: peptide hormone of the pancreatic polypeptide family
[12]
  inhibition of gastric emptying at doses of 100 μg: either weakly active or inactive

## YAEGTFISDYSIAMDKIHQQDFVNWLLAQKGKKNDWKHNITQ-OH [GIP, reference compound]
[13]; DIO mice
  BWt (mDIO): not active
[13]; mouse, in vivo
  weight loss / body weight change in diet-induced-obese mice: did not cause weight loss
[2]; DIO mice
  Body Comp (mDIO): No effect on lean mass
[3]; mice, effect on glucose
  OGTT: decreases
[3]; mouse, in vivo
  OGTT response: −10%
[4]; mice
  Glucose mice: weak
[4]; mouse, in vivo
  basal glucose lowering (% maximal decrease): 0%
[5]
  glucose lowering in a diabetic mouse model (FIG. 4): modest and wanes over time
[6]
  insulin levels prior to the glucose challenge: significant rise in insulin levels
  insulinotropic response to an intravenous glucose challenge (IVGTT assay): significant enhancement of the insulinotropic response
[8]; [17]
  pEC50: 8.04
[8]; [18]
  pEC50: 7.81
[14]
  Gastric Emptying: not active
[15]
  iCa: not active
[16]
  Glucose rats: not active
[9]; mice, peptide injected IP
  food intake: not active
[9]; mouse, in vivo, ip
  food intake: did not acutely inhibit food intake
[12]
  inhibition of gastric emptying at doses of 100 μg: either weakly active or inactive
[10]
  dP/dt: increased dP/dt similarly
  effect on mean arterial pressure: had no effect

## KCNTATCATQRLANFLVRSSNNLGPVLPPTNVGSNTY [rat amylin]
[9]; 30 min
  Mouse Food Intake, % basal: −58 % basal
[9]; 60 min
  Mouse Food Intake, % basal: −40 % basal
[9]; 120 min
  Mouse Food Intake, % basal: −36.5 % basal
[9]; 180 min
  Mouse Food Intake, % basal: −35.5 % basal
[9]; mouse, in vivo, ip
  food intake: significant decrease in food intake within 30 min
[12]
  EC(50) nmol/kg for inhibition of gastric emptying: 0.23 nmol/kg

## HSDGIFTDSYSRYRKQMAVKKYLAAVLGKRYKQRVKNK-NH2 [PACAP38]
[12]
  inhibition of gastric emptying at doses of 100 μg: either weakly active or inactive

## glucagon: peptide hormone
[12]
  inhibition of gastric emptying at doses of 100 μg: either weakly active or inactive
